The values below come from article PMC10945332, “Precision peptide theranostics: developing N- to C-terminus optimized theranostics targeting cholecystokinin-2 receptor” (Theranostics, 2024).

The subject of data set [1] is CCK2R. On the set-up: method as in PMID 33826325. To be noted: cited from earlier work.
Data set [2] concerns the target T1, human CCK2R (Homo sapiens, UniProt P32239).
T1 construct: stably transfected to over-express the human full-length CCK2R (A431-CCK2R); expressed in transfected cells
T1 sequence (P32239 1-447): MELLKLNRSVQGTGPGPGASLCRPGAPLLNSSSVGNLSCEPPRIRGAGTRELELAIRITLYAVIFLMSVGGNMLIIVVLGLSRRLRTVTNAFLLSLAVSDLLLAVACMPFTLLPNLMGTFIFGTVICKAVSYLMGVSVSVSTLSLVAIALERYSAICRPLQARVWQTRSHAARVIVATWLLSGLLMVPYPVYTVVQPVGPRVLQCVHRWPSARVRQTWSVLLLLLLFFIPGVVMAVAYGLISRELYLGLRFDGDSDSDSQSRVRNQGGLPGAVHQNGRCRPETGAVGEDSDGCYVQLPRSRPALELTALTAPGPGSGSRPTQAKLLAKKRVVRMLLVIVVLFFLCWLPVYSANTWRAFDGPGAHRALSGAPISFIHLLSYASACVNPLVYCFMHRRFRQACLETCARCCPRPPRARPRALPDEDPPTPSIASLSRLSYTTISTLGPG
The data set can be described thus: Competitive binding against [177Lu]Lu-DOTA-CP04 in A431-CCK2R cells. The conditions noted are these: linear peptide vs its Ga-DOTA form. The procedure:
Materials and Methods: Biology […]
In Vitro CCK2R-Ligand Competitive Binding Assays
All CCK2R binding experiments were conducted using A431 (human epidermoid carcinoma) […]
cells stably transfected to over-express the human full-length CCK2R (A431-CCK2R) (gifted […]
by Dr. Elisabeth von Guggenberg, Medizinische Universität Innsbruck).[41] As a negative […]
control, A431 cells stably transfected with an empty vector were analysed simultaneously […]
(A431-EV). All A431 cells were maintained in DMEM (Gibco, Australia) media supplemented […]
with 10% foetal calf serum and 250 µg/mL G418 as described previously.[32]
The affinity of all peptides for the CCK2R was evaluated using competitive binding assays […]
Briefly, 48 hours before the experiment […]
cells were plated at a density of 300,000 cells per well in 12 well plates. On the day of the […]
experiment, linear peptides were diluted in DMEM supplemented with 1% foetal calf serum to […]
DOTA-CP04 was added to each dilution. Cells were washed twice in ice-cold binding buffer […]
(DMEM supplemented with 1% foetal calf serum) and resuspended in 1 mL of the pre-prepared […]
peptide mix before being incubated at room temperature for 1 hour. Post-incubation the media […]
was removed and kept for analysis (unbound fraction) and the cells were washed twice in ice- […]
cold PBS which was pooled with the unbound fraction. Finally, 1 M NaOH (150µL) was added […]
to the wells and allowed to incubate for 5 min before lysates were collected (bound fraction).
A small volume of lysate was kept aside to determine protein concentration using the Pierce® BCA protein assay kit (Thermo Fisher, Australia). All samples were analysed using the Perkin […]
normalised according to protein concentration. Half maximal inhibitory concentration (IC50) was determined using nonlinear regression calculated using Gr aphPad Prism Software (GraphPad Software, California, USA). […]

The subject of data set [3] is AR42J xenografts. The conditions noted are these: mouse, in vivo, 1 h; cited from earlier work.
Data set [4] in a line: in vivo. To be noted: female, NSG, mouse, iv, total radioactivity. The procedure:
(§1) In order to assess these promising ligands as potential theranostics, the library of [^68Ga]Ga-DOTA-peptides was evaluated using static small animal PET imaging and quantifying biodistribution studies. This study was performed to investigate tumor uptake as well as the accumulation of radioligands in other organs. Mice bearing A431-CCK2R tumors were imaged at 1- and 2 hours post tracer injection, and tracer biodistribution was evaluated at the 1 hour and 2.5 hour time points to quantify tumor uptake and retention. […]
(§2) Small Animal PET Imaging and Biodistribution Studies
(§3) Female NSG mice (age 11-14 weeks) were sourced from Animal Resources Centre, (Canning Vale, Western Australia) and were inoculated subcutaneously on the right flank with 1-3 x 106 […]
(§4) A431-CCK2R cells in PBS:Matrigel (1:1). […]
(§5) Mice were assigned to imaging and/or biodistribution groups (tumour volumes: 119-327 mm3).
(§6) The respective 68Ga labelled tracer (1.63–3.81 MBq, 170µL, 13.7–14.2 pmoles) containing vehicle solution (75µL, DMSO:Tween 80: water, 2:2:6 v/v/v) was then administered to mice intravenously via tail vein injection. Three mice were euthanized for biodistribution 1 hour post injection (n=3) and selected tissues were excised, weighed, and counted using a Capintec (Captus 4000e) gamma counter. Three mice were anaesthetised using 1.5% isoflurane and imaged at 1 hour (n=3) and 2 hours (n=3) with a G8 Small Animal PET/CT scanner (Perkin […]
(§7) Elmer/Sofie Biosciences). A 10 min static PET scan was acquired, followed immediately by a CT scan (Supplementary Data, pS51–S55). PET images were acquired using the G8 acquisition engine software and reconstructed using a 3D maximal likelihood and expectation maximization (ML-EM) algorithm. PET images were analysed using VivoQuant software, version 3.0 (inviCRO Imaging Services and Software) to quantify maximum standardised uptake value in regions of interest (SUVmax). Background regions for imaging experiments were calculated by quantitating mean standardised uptake value (SUVmean) of the abdomen and gut region. The region of interest was selected due to low uptake in abdomen/gut during imaging. After imaging the 2-hour time point, mice organs were harvested for biodistribution […]
(§8) For blocking CCK2R binding a solution of N-[(3R)-2,3-Dihydro-1-[2-(2-methylphenyl)-2-oxoethyl]-2-oxo-5-phenyl-1H-1,4-benzodiazepin-3-yl]-N′-(3-methylphenyl)-urea (YM022; Sigma Aldrich) was used. YM022 (75µL of a 1 mg/ml solution constituting DMSO:Tween 80: water, 2:2:6 v/v/v) was added to the respective 68Ga labelled tracer (1.41–3.61 MBq, 100 µL, 13.7–14.2 pmoles) and this mixture ([…]) was administered in three mice intravenously via tail vein injection and organs harvested at 1 hour post injection for biodistribution analysis, as above.
(§9) All animal experiments were performed with the approval of the Peter MacCallum Cancer Centre Animal Experimentation Ethics Committee and in accordance with the Australian code for the care and use of animals for scientific purposes, 8th Edition, 2013 (AEEC Approval

Data set [5] is classed as in vitro ADME, mouse. The procedure:
Metabolic stability is an important determinant of the efficacy of peptide radiopharmaceuticals and their progression as promising theranostic candidates. In vitro, metabolic degradation through hepatic and renal enzymes can be assessed by utilizing liver and kidney tissue homogenates. Radiolabeled peptides [^68Ga]Ga-DOTA-GA4, and D-Ala substituted variants [^68Ga]Ga-DOTA-GA7, [^68Ga]Ga-DOTA-GA11-GA13 were incubated in liver and kidney mouse homogenates, in human serum at 37°C, and in HEPES buffer (pH 7.4) as a negative control. Following a time course experiment, the metabolites were analyzed using HPLC to quantify the % breakdown of the respective parent peptide. […]
To assess the stability of 68Ga radiolabeled peptides against enzymatic degradation, duplicate samples (750-900 pmol/mL, 2-5MBq) were incubated at 37 ℃ with pooled human serum, 15% […]
mouse kidney homogenate, 30% mouse liver homogenate or 20 mM HEPES, pH 7.3 (control).
Human blood was collected, and serum prepared using SSTII advance vacutainer tubes according to the manufacturer’s instructions (Becton Dickinson, New Jersey, USA). Mouse kidney and liver homogenates were prepared by washing the tissues in ice-cold HEPES buffer, pH 7.3 and placing them in pre-chilled tubes containing HEPES buffer and 2.38 mm metal beads (Mo-Bio Laboratories, Hilden, Germany). Tissues were homogenised using the PowerLyzer24 homogeniser (Qiagen, Hilden, Germany) according to the manufacturer’s instructions. 68Ga radiolabeled peptides were then incubated with the various lysates at 37 ℃ and samples were collected at 15, 30, 60 and 90 min. Reactions were terminated by addition of an equal volume of acetonitrile and centrifugation for 2 min at 15,000 rpm. Supernatants were diluted in water before being analysed by HPLC using a Kinetex C18 XB column (5µm

Data set [6] is classed as physicochemical. The procedure:
Lipophilicity, expressed as the octanol-water partition coefficient, constitutes an important property in drug action, influencing both pharmacokinetic and pharmacodynamics processes. The distribution coefficient (LogD7.4) of [^68Ga]Ga-DOTA-peptides was determined by measuring radioactivity distribution in the aqueous phase (phosphate buffer pH7.4) and the organic phase (n-octanol). […]
To determine the distribution coefficient (logD 7.4), 68Ga radiolabeled peptides [68Ga]Ga-DOTA-GA4, [68Ga]Ga-DOTA-GA7, and [68Ga]Ga-DOTA-GA11–GA13 were diluted to approximately 20 pmol/mL in PBS (pH 7.4) and an equal volume of n-octanol was added. The mixture was vortexed vigorously for 10 cycles of 1 min at room temperature before being centrifuged for 6 min to separate the two phases. Equal volumes from each phase were aliquoted into individual counting tubes and analysed for 1 min using the Perkin Elmer 2480 Wizard2™ gamma counter (PerkinElmer, Massachusetts, USA). The distribution coefficient was calculated using the following equation LogD = […]. […]

The conditions of data set [7]: mouse, in vivo. The procedure: as §1, §2, §3, §4, §5, §6, §7, §8, §9

One may read the IC50 as the midpoint of a concentration-inhibition curve. The term logD denotes lipophilicity at a set pH, counting ionised and neutral species. A word on the tissue uptake: it is the percentage of the injected dose found per gram of tissue. Lower therefore signals little accumulation.

Each structure is given as a SMILES string. Like-named read-outs stand apart in the source and are kept apart here. Where a SMILES comes first, the peptide text is derived from it. [ ]: non-standard residue; d: D form. The star is where a group is joined. DOTA = O=C(O)CN1CCN(CC(=O)O)CCN(CC(=O)*)CCN(CC(=O)O)CC1; NMe1Nal = CN[C@@H](Cc1cccc2ccccc12)C(=O)O; 1Nal = N[C@@H](Cc1cccc2ccccc12)C(=O)O; NMeNle = CCCC[C@H](NC)C(=O)O; Sar = CNCC(=O)O

Take `CCCC[C@@H](C(=O)N[C@@H](CC(=O)O)C(=O)N[C@@H](Cc1cccc2ccccc12)C(N)=O)N(C)C(=O)[C@H](Cc1c[nH]c2ccccc12)NC(=O)CN(C)C(=O)[C@H](Cc1ccc(O)cc1)NC(=O)[C@H](C)NC(=O)[C@@H](CCC(=O)O)NC(=O)[C@@H](CCC(=O)O)NC(=O)[C@@H](CCC(=O)O)NC(=O)[C@@H](CCC(=O)O)NC(=O)[C@@H](CCC(=O)O)NC(=O)[C@H](N)CCC(=O)O` [GA1, [D-Glu]6-Ala-Tyr-NMeGly-Trp-NMeNle-Asp-Nal-NH2] (H-[dE][dE][dE][dE][dE][dE]AY[Sar]W[NMeNle]D[1Nal]-NH2): in data set [1] (previously investigated), the “affinity to the CCK2R target” value was “sub-nanomolar”. Besides, the IC50 in data set [1] (previously shown, Ga-DOTA-GA1 form, read-out: binding affinity (IC50) against CCK2R) was 0.05 nM. Besides, the “fold decrease in affinity for CCK2R without gallium coordinated DOTA at the N-terminus” value in data set [2] was found to be 5 fold.

`CCCC[C@@H](C(=O)N[C@@H](CC(=O)O)C(=O)N(C)[C@@H](Cc1cccc2ccccc12)C(N)=O)N(C)C(=O)[C@H](Cc1c[nH]c2ccccc12)NC(=O)CN(C)C(=O)[C@H](Cc1ccc(O)cc1)NC(=O)[C@H](C)NC(=O)[C@@H](CCC(=O)O)NC(=O)[C@@H](CCC(=O)O)NC(=O)[C@@H](CCC(=O)O)NC(=O)[C@@H](CCC(=O)O)NC(=O)[C@@H](CCC(=O)O)NC(=O)[C@@H](CCC(=O)O)NC(=O)CN1CCN(CC(=O)O)CCN(CC(=O)O)CCN(CC(=O)O)CC1` [[^68Ga]Ga-DOTA-GA4, metal not drawn] ({DOTA}-[dE][dE][dE][dE][dE][dE]AY[Sar]W[NMeNle]D[NMe1Nal]-NH2): in data set [3], the Tumor uptake is on record as 31.1 ± 5.3 % ID/g. The tissue to tissue ratio at 1 h in data set [4] came out at 11.4 ± 0.9. Besides, the SUV at 2 h in data set [4] (SUVmax) amounted to 0.38 SUV. Also, in data set [5], the “metabolites in kidney homogenates” value is “no observable metabolites detected”. Moreover, the “metabolites in liver homogenates” value in data set [5] was “no observable metabolites detected”. The logD in data set [6] is -2.97 ± 0.13. Further, the tissue uptake at 1 h in data set [7] (3 mg/kg, Uptake in A431-CCK2R Tumors, 1 hr Blocked) came out at 2.05 ± 0.14 %ID/g; in data set [7] (Uptake in A431-CCK2R Tumors, 1 hr) it was 8.77 ± 1.21 %ID/g; in data set [7] (Uptake in Organs: Blood), 0.92 ± 0.05 %ID/g; in data set [7] (Uptake in Organs: Heart), 0.45 ± 0.03 %ID/g; in data set [7] (Uptake in Organs: Kidneys), 20.3 ± 0.89 %ID/g; in data set [7] (Uptake in Organs: Liver) it was 0.51 ± 0.01 %ID/g. The tissue uptake at 1 h in data set [7] (Uptake in Organs: Lungs) stood at 0.92 ± 0.04 %ID/g; in data set [7] (Uptake in Organs: Muscle) it was 0.14 ± 0.01 %ID/g; in data set [7] (Uptake in Organs: Spleen), 0.62 ± 0.14 %ID/g; in data set [7] (Uptake in Organs: Stomach) it was 2.37 ± 0.12 %ID/g. In data set [7] (Uptake in A431-CCK2R Tumors, 2.5 hr), this molecule had a tissue uptake at 2.5 h of 7.54 ± 0.5 %ID/g.
